# Measured values reported in BindingDB's records for doi:10.7270/Q2MK6B9H (Nmmlsc, 2009).
# Molecular target: Ras-related protein Rab-7a (Canis lupus familiaris, UniProt P18067)
# Experiment: Rab7 wildtype GTP binding inhibitors, SAR follow-up, biochemical, dog Rab7, bead multiplex flow cytometry, Bodipy-FL-GTP, pyrazoline series (AID 2041)
# Conditions: not given
# Ras-related protein Rab-7a, sequence (P18067 whole entry): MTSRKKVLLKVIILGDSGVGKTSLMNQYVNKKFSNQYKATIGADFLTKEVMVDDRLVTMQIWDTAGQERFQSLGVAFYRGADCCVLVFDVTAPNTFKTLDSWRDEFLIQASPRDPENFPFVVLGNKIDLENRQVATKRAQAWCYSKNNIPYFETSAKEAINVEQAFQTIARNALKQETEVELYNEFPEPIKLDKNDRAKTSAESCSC
row,Structure (SMILES),EC50 [µM]
1,"O=S(=O)(c1ccc(N2N=C(c3ccc(Br)cc3)CC2c2ccccc2)cc1)C(F)F (configuration not stated) [5-(4-bromophenyl)-2-[4-(difluoromethylsulfonyl)phenyl]-3-phenyl-3,4-dihydropyrazole]",> 30
2,Cc1onc(-c2ccccc2)c1-c1ccc(S(N)(=O)=O)cc1,> 30
3,"CN(C)c1ccc(C2CC(c3ccccc3)=NN2c2ccccc2)cc1 (configuration not stated) [4-(2,5-diphenyl-3,4-dihydropyrazol-3-yl)-N,N-dimethylaniline]",> 30
4,O=C(O)c1ccc(N2N=C(c3ccccc3)CC2c2ccccc2)cc1 (configuration not stated),> 30
5,Cc1cccc(N2N=C(c3ccccc3)CC2c2ccccc2)c1 (configuration not stated) [UNM-0000305835],> 30
6,COc1ccc(-c2cc(-c3ccccc3)nn2-c2ccc(S(N)(=O)=O)cc2)cc1 [4-[5-(4-methoxyphenyl)-3-phenylpyrazol-1-yl]benzenesulfonamide],> 30
7,O=[N+]([O-])c1ccc([N+]2=N[C-](c3ccccc3)CC2c2ccc(O)cc2)cc1 (configuration not stated) [UNM-0000305838],> 30
8,"NS(=O)(=O)c1ccc(N2N=C(c3ccccc3)CC2c2ccccc2Br)cc1 (configuration not stated) [4-[3-(2-bromophenyl)-5-phenyl-3,4-dihydropyrazol-2-yl]benzenesulfonamide]",> 30
9,Cc1ccccc1[N+]1=N[C-](c2ccccc2)CC1c1cccc([N+](=O)[O-])c1 (configuration not stated) [UNM-0000305854],> 30
10,COc1ccc(C2CC(c3ccc(F)cc3)=NN2c2cccc(F)c2)cc1OC (configuration not stated),22.5

# Other lines, results leading:
row,EC50 [µM],Structure (SMILES)
1,> 30,COc1ccc(C2CC(c3ccccc3)=NN2c2ccc(C(N)=O)cc2)cc1 (configuration not stated) [UNM-0000305870]
2,> 30,Cc1ccccc1C1CC(c2ccccc2)=NN1c1ccc(S(N)(=O)=O)cc1 (configuration not stated) [UNM-0000306148]
3,> 30,COc1ccc(C2CC(c3ccccc3C)=NN2c2ccc(S(N)(=O)=O)cc2)cc1 (configuration not stated) [UNM-0000306152]
4,> 30,COc1ccc(C2=NN(c3ccccc3F)C(c3ccc(F)cc3)C2)cc1 (configuration not stated) [UNM-0000305860]
5,> 30,"COc1ccc(C2=NN(c3ccc(Cl)c(Cl)c3)C(c3ccc(OC)cc3)C2)cc1 (configuration not stated) [2-(3,4-dichlorophenyl)-3,5-bis(4-methoxyphenyl)-3,4-dihydropyrazole]"
6,> 30,COc1ccc(C2CC(c3cccc(N(C)C)c3)=NN2c2ccc(S(N)(=O)=O)cc2)cc1 (configuration not stated)
7,> 30,"COc1ccc(C2CC(c3cccc(F)c3)=NN2c2ccc(S(N)(=O)=O)cc2)cc1 (configuration not stated) [4-[5-(3-fluorophenyl)-3-(4-methoxyphenyl)-3,4-dihydropyrazol-2-yl]benzenesulfonamide]"
8,> 30,COc1ccc(C2CC(c3ccncc3)=NN2c2ccc(S(N)(=O)=O)cc2)cc1 (configuration not stated)
9,11.1,"COc1ccc(C2CC(c3ccc(F)cc3)=NN2c2cc(Cl)ccc2Cl)cc1 (configuration not stated) [2-(2,5-dichlorophenyl)-5-(4-fluorophenyl)-3-(4-methoxyphenyl)-3,4-dihydropyrazole]"
10,> 30,Cc1ccc(C2CC(c3ccccc3)=NN2c2ccc(S(N)(=O)=O)cc2)cc1 (configuration not stated)
11,> 30,COc1ccc(C2=NN(c3ccc(Cl)cc3)C(c3ccccc3F)C2)cc1 (configuration not stated) [UNM-0000305863]

# Same assay, conditions: inactive by the depositor's call
row,EC50 [µM],Structure (SMILES)
1,0.104,"COc1ccc(C2=NN(c3cccc(F)c3)C(c3ccc(OC)cc3)C2)cc1 (configuration not stated) [2-(3-fluorophenyl)-3,5-bis(4-methoxyphenyl)-3,4-dihydropyrazole]"
